# In patent EP0257993B1, “Nucleic acid fragment encoding herbicide resistant plant acetolactate synthase” (priority 1986, dated 1988):
# Tests used:
# [1] = tested on: Sensitive N. tabacum Cells; assay: Co-cultivation of N. tabacum protoplasts with A. tumefaciens, colony formation on selective media; format: cell-based, Nicotiana tabacum var. Wisconsin 38; conditions: for Number of Colony Forming Units derived from 10^5 Protoplast Equivalents One Month after Co-cultivation: Table 7
# Experimental: Sterile tobacco (Nicotiana tabacum var. Wisconsin 38) plants were cultured from 1 cm apical or auxillary explants on OMS Medium in Magenta Boxes under a cycle of a 16 hour light period (6,000-8,000 lux) followed by an 8 hour dark period. When the plants were 5-7 weeks old, fully expanded leaves (3-6 leaves down from the apex) were removed, and two leaves each were placed, top surface down, on 20 mL of protoplast isolation medium in a 100 x 25 mm petri dish. The leaves were then submerged and finely divided with a sharp surgical blade. The midrib was held and the cuts were made outward from it towards the leaf margin at approximately 2 mm intervals. The petri dishes were then sealed with parafilm and the macerated tissue incubated overnight (14-17 hours) in darkness at 27-29°C with gentle gyrotory agitation (20-25 rpm).
# The glass tubing was placed in a Babcock bottle, and the cheesecloth was wetted with K3/S(1) Medium. The digested leaf tissue from two petri dishes was carefully poured into the funnel. The cheesecloth was rinsed and expressed into the bottle. The loaded bottles were topped with K3/S(1) Medium, covered with foil and centrifuged at approximately 100 x g for 10 minutes. The floating protoplasts (1-2 mL) were collected with a 1 mL serological pipette and placed in 20 mL of K3/S(1) Medium in another Babcock bottle. After resuspending the protoplasts by gently swirling, the Babcock bottles were topped and centrifuged as before. The floating protoplasts (1-2 mL) were collected as described above and placed in 30 mL of K3/G(1) Medium. The protoplasts were counted in a hemacytometer, and the volume was adjusted to give 1 x 10^+5 protoplasts/mL. 5 mL aliquots of the protoplasts were plated in petri dishes [100 x 20 mm tissue-culture petri dishes (Corning); these dishes were used in all subsequent protoplast manipulations] and cultured in darkness.
# When the optical density (at 550 nm) of the A. tumefaciens cultures was 0.6 (log phase culture), approximately 6 hours after dilution, the bacteria were added to plant cells at a multiplicity of approximately 50 bacteria/plant cell (an optical density of 1.0 at 550 nm = 1.4 x 10^9 bacteria). The bacteria and plant cell mixture was co-cultivated for 66 hours at 24°C in low light (approximately 500 lux). Non-transformed protoplast controls were incubated similarly, but without agrobacteria. The following protocol is carried out for each co-cultivation (transformed cells with different agrobacteria, as well as non-transformed cells).
# Co-cultivation was terminated by adding 20 mL of a 1:1 mixture of K3/G(2) Medium:C Medium supplemented with 500 mg/liter of cefotaxime (to select against the agrobacteria) to 5 mL of the co-cultivation mixture. The co-cultivated cells were gently and thoroughly resuspended in the new medium by mixing with a 5 or 10 mL serological pipette. The cell density was 2 x 10^4 protoplast equivalents/mL (protoplast equivalents = initial protoplasts, assuming 100% recovery and cell survival) and the osmoticum was 0.35 M. Three 5 mL aliquots of each culture were dispensed into fresh petri dishes.
# From this juncture until the cells were embedded in solid medium, the cells were cultured in low light (500-1500 lux) without motion and were aseptically transferred to different media. […] For these transfers, the contents of each plate were collected with a 5 mL serological pipette, placed in separate 15 mL polystyrene conical centrifuge tubes and centrifuged at approximately 50 x g for 5-10 minutes. The supernatant fluid was removed with a pipette without disrupting the loose pellet. Pellets of co-cultivated cells from each plate were then gently resuspended in the appropriate fresh medium.
# Each of these cultures was returned to the petri dishes from which they were taken; in this way not all cells needed to be pelleted to effect a medium exchange with minimal cell loss.
# tobacco plant cells = assay: Herbicide resistance in plant cells transformed with site specific mutant sugarbeet ALS gene; format: cell-based; conditions: 2x10^5 starting plant cells; for Kanamycin^R: kanamycin at 50ppm; for Chlorsulfuron^R: chlorsulforon at 2ppb
# Experimental: Introduction of the ALS genes into herbicide sensitive tobacco and sugarbeet, by co-cultivation of the plant cells with A. tumefaciens carrying the ALS genes in the binary vector, was performed as described in EXAMPLE I and EXAMPLE II. Herbicide resistant transformants were obtained with three of the four mutant sugarbeet ALS genes. The frequency of obtaining herbicide resistant transformants was lower than that for kanamycin resistant transformants, and also lower than the frequency of herbicide resistant transformants obtained when the tobacco SURB-Hra gene was used. […] This may reflect either insufficient nucleotide regulatory sequences upstream or downstream of the mutant sugarbeet ALS genes in the DNA fragments used or poor utilization of sugarbeet nucleotide regulatory sequences in tobacco or both. […]
# Gene introductions were done by standard co-cultivation method. […] Selection was with chlorsulforon at 2ppb or kanamycin at 50ppm.
# alfalfa callus = assay: Resistant growth of transformed alfalfa callus and tissue; format: cell-based, Medicago sativa cv. Rangelander
# Experimental: These explants were dipped into a log phase Agrobacterium culture prepared as described in EXAMPLE I, transferred to fresh co-cultivation plates, and cultured at 24°C with 16 hr. days for 3 days.
# The bacteria were killed by washing the explants for 3 hrs. with gentle agitation in washing media, and cultured on fresh selection plates.
# The explants were subcultured every 3-4 weeks. […] When callus became more organized, (areas are darker green and more compact) it was transferred to fresh maturation media.
# ALS = format: biochemical, Nicotiana tabacum; conditions: C3 and S4 lines
# Experimental: Callus cultures of sensitive tobacco (Nicotiana tabacum var. Xanthi) were exposed to sulfometuron methyl at 2 ppb according to the method described by Chaleff, U.S. 4,443,971. […] Plants were regenerated from Hra callus cultures. […] ALS activity in extracts of leaves of wild type and homozygous Hra mutant tobacco plants was determined.
# Brassica napus = Brassica napus plants sprayed with chlorsulfuron; format: in vivo, Brassica napus cv. Olga
# [2] = Gene Origin Sugarbeet, ala(122)-pro
# [3] = Gene Origin Sugarbeet, pro(197)-ala/trp(591)-leu
# [4] = Gene Origin Sugarbeet, pro(197)-ala
# [5] = Gene Origin Sugarbeet, trp(591)-leu
# [6] = Gene Origin Tobacco, pro(197)-ala/trp(591)-leu
smiles,measurement,setting,value
NC[C@H]1O[C@H](O[C@H]2[C@H](O)[C@@H](O[C@H]3O[C@H](CO)[C@@H](O)[C@H](N)[C@H]3O)[C@H](N)C[C@@H]2N)[C@H](O)[C@@H](O)[C@@H]1O [Kanamycin],Number of colony forming units derived from 10^5 protoplast equivalents one month after co-cultivation,"[1]; Table 4, N.t. (non-cocultured control plant cells), Kanamycin 50 µg/mL",0
same,Number of colony forming units derived from 10^5 protoplast equivalents one month after co-cultivation,"[1]; Table 4, N.t./P145 (pAGS145, herbicide-sensitive ALS from phage clone 1), Kanamycin 50 µg/mL",5.9 x 10^2
same,Number of colony forming units derived from 10^5 protoplast equivalents one month after co-cultivation,"[1]; Table 5, N.t. (non-cocultured control plant cells), Kanamycin 50 µg/mL",0
same,Number of colony forming units derived from 10^5 protoplast equivalents one month after co-cultivation,"[1]; Table 5, N.t./P112 (pAGS112, kanamycin resistance vector), Kanamycin 50 µg/mL",2.5 x 10^3
same,Number of colony forming units derived from 10^5 protoplast equivalents one month after co-cultivation,"[1]; Table 5, N.t./p152 (pAGS152, phage clone 3), Kanamycin 50 µg/mL",6.2 x 10^2
same,Number of Colony Forming Units derived from 10^5 Protoplast Equivalents One Month after Co-cultivation,"[1]; N.t. (non co-cultured plant cells), Kanamycin 50 ug/ml",0
same,Number of Colony Forming Units derived from 10^5 Protoplast Equivalents One Month after Co-cultivation,"[1]; N.t./P312 (pAGS312, C3 subclone, φ31 orientation 1), Kanamycin 50 ug/ml",65
same,Number of Colony Forming Units derived from 10^5 Protoplast Equivalents One Month after Co-cultivation,"[1]; N.t./p152 (pAGS152, S4/Hra subclone), Kanamycin 50 ug/ml",88
same,Number of Colony Forming Units derived from 10^5 Protoplast Equivalents One Month after Co-cultivation,"[1]; N.t./p313 (pAGS313, C3 subclone, φ31 orientation 2), Kanamycin 50 ug/ml",48
same,Number of Colony Forming Units derived from 10^5 Protoplast Equivalents One Month after Co-cultivation,"[1]; N.t./p351 (pAGS351, C3 subclone, φ35), Kanamycin 50 ug/ml",139
same,Number of Colony Forming Units derived from 10^5 Protoplast Equivalents One Month after Co-cultivation,"[1]; N.t./p381 (pAGS381, C3 subclone, φ38), Kanamycin 50 ug/ml",87
same,Kanamycin^R,tobacco plant cells; [2],415
same,Kanamycin^R,tobacco plant cells; [3],1362
same,Kanamycin^R,tobacco plant cells; [4],1073
same,Kanamycin^R,tobacco plant cells; [5],1080
same,Kanamycin^R,tobacco plant cells; [6],1083
same,explants that developed callus resistant to kanamycin,alfalfa callus; kanamycin at 100mg/L,Less than 1%
COc1nc(C)nc(NC(=O)NS(=O)(=O)c2ccccc2Cl)n1 [chlorsulfuron],chlorsulfuron resistance conferred in transformed tobacco calluses,[1]; 6.3 kb DNA fragment (SURA-C3),2 ppb
same,Number of colony forming units derived from 10^5 protoplast equivalents one month after co-cultivation,"[1]; Table 4, N.t. (non-cocultured control plant cells), Chlorsulfuron 2 ng/mL",0
same,Number of colony forming units derived from 10^5 protoplast equivalents one month after co-cultivation,"[1]; Table 4, N.t./P145 (pAGS145, herbicide-sensitive ALS from phage clone 1), Chlorsulfuron 2 ng/mL",0
same,Number of colony forming units derived from 10^5 protoplast equivalents one month after co-cultivation,"[1]; Table 5, N.t. (non-cocultured control plant cells), Chlorsulfuron 2 ng/mL",0
same,Number of colony forming units derived from 10^5 protoplast equivalents one month after co-cultivation,"[1]; Table 5, N.t./P112 (pAGS112, kanamycin resistance vector), Chlorsulfuron 2 ng/mL",0
same,Number of colony forming units derived from 10^5 protoplast equivalents one month after co-cultivation,"[1]; Table 5, N.t./p152 (pAGS152, phage clone 3), Chlorsulfuron 2 ng/mL",6.5 x 10^2
same,Number of Colony Forming Units derived from 10^5 Protoplast Equivalents One Month after Co-cultivation,"[1]; N.t. (non co-cultured plant cells), Chlorsulfuron 2 ng/ml",0
same,Number of Colony Forming Units derived from 10^5 Protoplast Equivalents One Month after Co-cultivation,"[1]; N.t./P312 (pAGS312, C3 subclone, φ31 orientation 1), Chlorsulfuron 2 ng/ml",0
same,Number of Colony Forming Units derived from 10^5 Protoplast Equivalents One Month after Co-cultivation,"[1]; N.t./p152 (pAGS152, S4/Hra subclone), Chlorsulfuron 2 ng/ml",83
same,Number of Colony Forming Units derived from 10^5 Protoplast Equivalents One Month after Co-cultivation,"[1]; N.t./p313 (pAGS313, C3 subclone, φ31 orientation 2), Chlorsulfuron 2 ng/ml",0
same,Number of Colony Forming Units derived from 10^5 Protoplast Equivalents One Month after Co-cultivation,"[1]; N.t./p351 (pAGS351, C3 subclone, φ35), Chlorsulfuron 2 ng/ml",32
same,Number of Colony Forming Units derived from 10^5 Protoplast Equivalents One Month after Co-cultivation,"[1]; N.t./p381 (pAGS381, C3 subclone, φ38), Chlorsulfuron 2 ng/ml",18
same,Chlorsulfuron^R,tobacco plant cells; [2],0
same,Chlorsulfuron^R,tobacco plant cells; [3],91
same,Chlorsulfuron^R,tobacco plant cells; [4],35
same,Chlorsulfuron^R,tobacco plant cells; [5],2
same,Chlorsulfuron^R,tobacco plant cells; [6],698
same,resistance of kanamycin resistant sectors,alfalfa callus; chlorsulfuron at 50 ppb,resistant
same,chlorsulfuron concentration at which transformant tissue was able to grow,alfalfa callus; one transformant,1000 ppb
same,chlorsulfuron concentration at which transformant tissue was able to grow,alfalfa callus; the other two transformants,5000 ppb
same,resistance of ALS enzyme activity compared with ALS from wild type,ALS,one-hundred fold
same,growth of plants sprayed with chlorsulfuron,"Brassica napus; Ro #1, 0.3 ppm",++
same,growth of plants sprayed with chlorsulfuron,"Brassica napus; Ro #1, 1 ppm",++
same,growth of plants sprayed with chlorsulfuron,"Brassica napus; Ro #1, 3 ppm",++
same,growth of plants sprayed with chlorsulfuron,"Brassica napus; Ro #1, 10 ppm",+
same,growth of plants sprayed with chlorsulfuron,"Brassica napus; Ro #2, 0.3 ppm",++
same,growth of plants sprayed with chlorsulfuron,"Brassica napus; Ro #2, 1 ppm",+
same,growth of plants sprayed with chlorsulfuron,"Brassica napus; Ro #2, 3 ppm",-
same,growth of plants sprayed with chlorsulfuron,"Brassica napus; Ro #2, 10 ppm",-
same,growth of plants sprayed with chlorsulfuron,"Brassica napus; Ro #3, 0.3 ppm",++
same,growth of plants sprayed with chlorsulfuron,"Brassica napus; Ro #3, 1 ppm",+
same,growth of plants sprayed with chlorsulfuron,"Brassica napus; Ro #3, 3 ppm",+
same,growth of plants sprayed with chlorsulfuron,"Brassica napus; Ro #3, 10 ppm",-
same,growth of plants sprayed with chlorsulfuron,"Brassica napus; Ro #4, 0.3 ppm",++
same,growth of plants sprayed with chlorsulfuron,"Brassica napus; Ro #4, 1 ppm",+
same,growth of plants sprayed with chlorsulfuron,"Brassica napus; Ro #4, 3 ppm",-
same,growth of plants sprayed with chlorsulfuron,"Brassica napus; Ro #4, 10 ppm",-
same,growth of plants sprayed with chlorsulfuron,"Brassica napus; Ro #5, 0.3 ppm",+++
same,growth of plants sprayed with chlorsulfuron,"Brassica napus; Ro #5, 1 ppm",++
same,growth of plants sprayed with chlorsulfuron,"Brassica napus; Ro #5, 3 ppm",++
same,growth of plants sprayed with chlorsulfuron,"Brassica napus; Ro #5, 10 ppm",+
same,growth of plants sprayed with chlorsulfuron,"Brassica napus; untransformed, 0.3 ppm",++
same,growth of plants sprayed with chlorsulfuron,"Brassica napus; untransformed, 1 ppm",+
same,growth of plants sprayed with chlorsulfuron,"Brassica napus; untransformed, 3 ppm",-
same,growth of plants sprayed with chlorsulfuron,"Brassica napus; untransformed, 10 ppm",-
